Experimental data as given in patent US20220372099A1 (priority 2019, published 2022).

Assays:
erythropoietic activity [1] = test: repeat-dose study, 13 weekly SC doses with 35-day recovery, limiting erythropoiesis; format: in vivo, Cynomolgus monkeys
Excerpt: A cohort of animals (4/sex/group) were sacrificed on Day 92 (Main), and the remaining animals (2/sex/group) were sacrificed on Day 120 following a 35-day recovery period (Recovery).

[2] = plasma concentrations of Compound A in PV patients; format: in vivo, human; details: SC doses of 10 mg to 80 mg, various times after dosing
Description: Plasma concentrations of Compound A were measured at various times after dosing of subcutaneous doses of 10 mg to 80 mg in PV patients. The concentrations increased in a dose-dependent manner and varied based on dose and time of sampling. Compound A concentrations ranged from below detectable (<2 ng/mL) to 866 ng/mL (FIGS. 17A and 17B).

erythropoietic activity [3] = test: repeat-dose study, 4 weekly SC doses with 28-day recovery, limiting erythropoiesis; details: SC weekly x4
[4] = Phase I single dose study in healthy subjects; format: in vivo, human; details: 62 healthy subjects
Excerpt: Compound A is a hepcidin mimetic agent in clinical studies for multiple blood disorders.

Polycythemia vera [5] = test: Phase 2 study in patients with phlebotomy-requiring Polycythemia vera; details: 10-80 mg SC weekly
Description: Eligible patients were enrolled in the 28-week dose finding part of the Phase 2 trial. […] Body iron status was quantified by monitoring serum ferritin, serum iron, transferrin saturation (TSAT), mean corpuscular volume (MCV) and mean corpuscular hemoglobin (MCH).

Polycythemia vera [6] = details: PV mice expressing the orthologous JAK2 mutation; cited from earlier work
serum iron = test: PK-PD experiment, serum iron (Cobas Iron2 colorimetric assay); format: in vivo, Cynomolgus monkeys; details: 2.93 mg/kg SC
Description: Iron content in plasma/serum was measured using a colorimetric assay on the Cobas c 111 according to instructions from the manufacturer of the assay (assay: IRON2: ACN 661).

Polycythemia vera [7] = details: through week 32 (portal vein thrombosis); 6 events with BAT; cited from earlier work

## CCCCCCCCCCCCCCCC(=O)N[C@@H](CCC(=O)NCCCC[C@@H]1NC(=O)[C@H]([C@@H](C)CC)NC(=O)[C@@H](NC(=O)[C@@H]2CCCN2C(=O)[C@H](Cc2ccccc2)NC(=O)[C@H](Cc2c[nH]cn2)NC(=O)[C@@H](NC(=O)[C@H](CC(=O)O)NC(=O)CC(C)C)[C@@H](C)O)CSSC[C@@H](C(=O)N[C@@H](CCCCN)C(N)=O)NC(=O)CNC(=O)[C@H](CCCCN)NC(=O)[C@H](CO)NC(=O)[C@H](CCCNC(=N)N)NC(=O)[C@@H]2CCCN2C(=O)[C@H](CCC(=O)O)NC(=O)[C@H](Cc2ccccc2)NC1=O)C(=O)O [Compound A]
Erythropoietic activity [1]; SC weekly x13
  dose with hematopoietic hypercellularity in bone marrow, extramedullary hematopoiesis and hemosiderin deposition in liver and spleen: ≥ 2 mg/kg/dose
  dose with increased organ weight (liver and spleen): 6 mg/kg/dose
Erythropoietic activity [1]; during the treatment period
  dose with increase in total bilirubin (tBili): ≥ 2 mg/kg/day
Erythropoietic activity [1]; male and female animals
  dose with significantly elevated levels of platelets: 6 mg/kg/dose
[2]
  plasma concentrations of Compound A, ranged from below detectable (<2 ng/mL) up to: ≤ 866 ng/mL
Erythropoietic activity [3]
  dose causing pharmacology-mediated anemia (dose- and time-dependent decreases in Hct and Hgb): ≥ 3 mg/kg/dose
[4]
  adverse events: without significant adverse events
Polycythemia vera [5]
  grade of most of the injection site reactions: 1-2 grade
  leukocyte count over the course of treatment: remained generally steady
  most frequent adverse events: injection site reaction (ISR) reported by three patients
  platelet counts over the course of treatment: remained generally steady
  tolerability: well tolerated

## minihepcidin: hepcidin mimetic administered to PV mice in Casu et al., Blood 2016; not further defined (DTHFPICIF)
Polycythemia vera [6]
  hematocrit: normalizes hematocrit
  splenomegaly: significantly reduces splenomegaly

## Isovaleric acid-DTHFPCIKF(K(PEG11-Palm))PRSK[Sar]CK-NH2 [Compound B]
Serum iron
  time of maximal serum iron reduction: about 12 hour
Serum iron; about 12 hour post administration
  serum iron lower than the pre-dose levels (maximal reduction): 12 fold

## N#CC[C@H](C1CCCC1)n1cc(-c2ncnc3[nH]ccc23)cn1 [ruxolitinib]
Polycythemia vera [7]
  thromboembolic events: 1 event
